# What was measured:
# Type in all cases: cell-based
# HER2 WT [1] = target: T1, HER2 WT (Homo sapiens, UniProt P04626); test: BaF3 cell proliferation assay, HER2 WT (Table B); details: potency code, 3 days, CellTiterGlo, read-out: HER2 WT (Activity for Inhibiting HER2)
# HER2 S310F [2] = target: T2, HER2 S310F (Homo sapiens, UniProt P04626, S310F); test: Activity for inhibiting HER2 (Table B), HER2 S310F; details: read-out: HER2 S310F, potency code (IC50)
# T2 construct: expressed in transfected cells; host or cells: BaF3 (murine pro-B)
# Description: (§1) EC50 values were determined with the same application.
# EGFR V3 [3] = target: T3, EGFR V3 (Homo sapiens, UniProt P00533, DELINS30-297G); test: Activity for inhibiting EGFR (Table A), EGFR V3 (EGFR-Viii); details: read-out: EGFR V3, potency code (IC50)
# T3 construct: expressed in transfected cells; host or cells: BaF3 (murine pro-B), retroviral pMXs-IRES-Blasticidin
# EGFR WT [4] = target: T4, EGFR WT (Homo sapiens, UniProt P00533); test: BaF3 cell proliferation assay, EGFR WT (Table A); details: potency code, 3 days, CellTiterGlo, read-out: EGFR WT (Activity for Inhibiting EGFR)
# In short: (§2)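 Steps: HEK 293T transfected with pMXs-IRES-Blasticidin kinase vector plus Gag-Pol and VSV-G; virus harvested at 24 and 48 hrs; BaF3 infected twice by centrifugation, Blasticidin-selected, then grown without IL-3. Proliferation EC50 measured.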
# HER2 S310F [5] = target: T2, HER2 S310F; test: BaF3 cell proliferation assay, HER2 S310F (Table B); details: potency code, 3 days, CellTiterGlo, read-out: HER2 S310F (Activity for Inhibiting HER2)
# EGFR WT [6] = target: T4, EGFR WT; test: Activity for inhibiting EGFR (Table A), EGFR WT; details: read-out: EGFR WT, potency code (IC50)
# HER2 WT [7] = target: T1, HER2 WT; test: Activity for inhibiting HER2 (Table B), HER2 WT
# EGFR V3 [8] = target: T3, EGFR V3; test: BaF3 cell proliferation assay, EGFR V3 (Table A); details: potency code, 3 days, CellTiterGlo, read-out: EGFR V3 (Activity for Inhibiting EGFR)
# In short: as §2
# HER2 YVMA [9] = target: T5, HER2 YVMA (Homo sapiens, UniProt P04626, INS775YVMA); test: Activity for inhibiting HER2 (Table B), HER2 YVMA; details: read-out: HER2 YVMA, potency code (IC50)
# T5 construct: expressed in transfected cells; host or cells: BaF3 (murine pro-B)
# Description: as §1
# HER2 YVMA [10] = target: T5, HER2 YVMA; test: BaF3 cell proliferation assay, HER2 YVMA (Table B); details: potency code, 3 days, CellTiterGlo, read-out: HER2 YVMA (Activity for Inhibiting HER2)
# [11] = Table B, read-out: HER2 WT, potency code (IC50)
# [12] = text lists of compounds, read-out: IC50 value for inhibiting wild-type HER2
# T2 sequence (P04626 23-1255 S310F): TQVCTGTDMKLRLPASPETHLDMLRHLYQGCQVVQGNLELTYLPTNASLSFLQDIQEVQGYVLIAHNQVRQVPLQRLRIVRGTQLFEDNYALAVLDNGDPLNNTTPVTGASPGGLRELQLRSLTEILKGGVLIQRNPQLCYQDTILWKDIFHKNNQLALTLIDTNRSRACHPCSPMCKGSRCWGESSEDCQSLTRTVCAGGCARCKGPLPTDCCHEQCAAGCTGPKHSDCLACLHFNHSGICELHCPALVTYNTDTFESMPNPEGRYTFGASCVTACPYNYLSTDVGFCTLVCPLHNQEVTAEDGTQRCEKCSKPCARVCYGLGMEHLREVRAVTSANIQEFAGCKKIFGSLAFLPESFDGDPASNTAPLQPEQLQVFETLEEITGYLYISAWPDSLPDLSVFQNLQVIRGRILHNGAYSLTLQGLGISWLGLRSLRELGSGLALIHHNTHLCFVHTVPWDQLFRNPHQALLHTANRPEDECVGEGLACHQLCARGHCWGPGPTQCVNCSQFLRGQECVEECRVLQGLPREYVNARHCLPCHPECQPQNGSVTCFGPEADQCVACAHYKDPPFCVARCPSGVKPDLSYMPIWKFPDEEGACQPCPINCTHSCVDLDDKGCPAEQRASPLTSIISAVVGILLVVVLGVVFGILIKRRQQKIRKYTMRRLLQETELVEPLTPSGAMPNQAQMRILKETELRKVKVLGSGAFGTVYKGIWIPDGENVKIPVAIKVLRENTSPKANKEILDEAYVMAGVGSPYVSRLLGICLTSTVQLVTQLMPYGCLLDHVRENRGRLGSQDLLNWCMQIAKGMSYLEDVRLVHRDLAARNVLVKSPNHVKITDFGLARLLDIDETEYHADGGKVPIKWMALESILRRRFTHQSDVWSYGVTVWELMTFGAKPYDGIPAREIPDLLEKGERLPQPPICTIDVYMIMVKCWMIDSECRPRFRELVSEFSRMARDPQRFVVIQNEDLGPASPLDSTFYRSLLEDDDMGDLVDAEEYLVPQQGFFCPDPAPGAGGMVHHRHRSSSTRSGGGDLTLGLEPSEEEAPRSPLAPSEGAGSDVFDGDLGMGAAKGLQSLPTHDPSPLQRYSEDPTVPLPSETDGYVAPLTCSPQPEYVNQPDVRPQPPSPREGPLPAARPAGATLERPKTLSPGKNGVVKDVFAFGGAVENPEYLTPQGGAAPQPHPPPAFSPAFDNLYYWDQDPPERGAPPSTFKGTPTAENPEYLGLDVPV
# T4 sequence (P00533 25-1210 N540K): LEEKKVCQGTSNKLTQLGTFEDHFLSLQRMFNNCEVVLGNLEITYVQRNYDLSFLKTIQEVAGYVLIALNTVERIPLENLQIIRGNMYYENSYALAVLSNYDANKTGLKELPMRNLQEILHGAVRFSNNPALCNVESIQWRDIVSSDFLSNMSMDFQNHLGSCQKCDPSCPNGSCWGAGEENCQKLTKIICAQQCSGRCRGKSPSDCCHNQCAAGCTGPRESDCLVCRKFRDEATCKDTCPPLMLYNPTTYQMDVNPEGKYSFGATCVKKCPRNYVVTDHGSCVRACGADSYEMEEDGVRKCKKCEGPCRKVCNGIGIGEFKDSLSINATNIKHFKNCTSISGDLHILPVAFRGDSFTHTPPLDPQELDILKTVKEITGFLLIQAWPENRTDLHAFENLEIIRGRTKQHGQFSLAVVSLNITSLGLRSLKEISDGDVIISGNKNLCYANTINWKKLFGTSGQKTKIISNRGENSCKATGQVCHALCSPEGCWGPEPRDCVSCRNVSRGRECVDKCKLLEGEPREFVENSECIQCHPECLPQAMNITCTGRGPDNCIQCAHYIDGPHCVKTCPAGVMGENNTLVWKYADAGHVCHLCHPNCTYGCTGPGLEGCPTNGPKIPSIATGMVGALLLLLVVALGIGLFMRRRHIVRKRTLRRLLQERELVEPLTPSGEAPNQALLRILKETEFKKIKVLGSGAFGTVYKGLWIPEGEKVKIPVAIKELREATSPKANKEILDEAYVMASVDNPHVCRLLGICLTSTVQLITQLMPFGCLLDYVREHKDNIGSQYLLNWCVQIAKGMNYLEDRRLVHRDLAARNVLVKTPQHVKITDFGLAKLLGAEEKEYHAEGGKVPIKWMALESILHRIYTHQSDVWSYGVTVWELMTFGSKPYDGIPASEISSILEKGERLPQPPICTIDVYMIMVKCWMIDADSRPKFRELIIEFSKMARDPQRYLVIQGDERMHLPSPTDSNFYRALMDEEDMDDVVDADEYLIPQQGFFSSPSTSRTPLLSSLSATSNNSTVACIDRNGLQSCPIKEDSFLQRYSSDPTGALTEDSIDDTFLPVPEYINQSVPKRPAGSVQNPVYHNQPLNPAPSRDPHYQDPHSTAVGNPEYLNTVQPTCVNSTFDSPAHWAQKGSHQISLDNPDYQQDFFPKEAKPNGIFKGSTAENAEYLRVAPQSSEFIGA
# T3 sequence (P00533 with tags, fused parts or gaps DELINS30-297G): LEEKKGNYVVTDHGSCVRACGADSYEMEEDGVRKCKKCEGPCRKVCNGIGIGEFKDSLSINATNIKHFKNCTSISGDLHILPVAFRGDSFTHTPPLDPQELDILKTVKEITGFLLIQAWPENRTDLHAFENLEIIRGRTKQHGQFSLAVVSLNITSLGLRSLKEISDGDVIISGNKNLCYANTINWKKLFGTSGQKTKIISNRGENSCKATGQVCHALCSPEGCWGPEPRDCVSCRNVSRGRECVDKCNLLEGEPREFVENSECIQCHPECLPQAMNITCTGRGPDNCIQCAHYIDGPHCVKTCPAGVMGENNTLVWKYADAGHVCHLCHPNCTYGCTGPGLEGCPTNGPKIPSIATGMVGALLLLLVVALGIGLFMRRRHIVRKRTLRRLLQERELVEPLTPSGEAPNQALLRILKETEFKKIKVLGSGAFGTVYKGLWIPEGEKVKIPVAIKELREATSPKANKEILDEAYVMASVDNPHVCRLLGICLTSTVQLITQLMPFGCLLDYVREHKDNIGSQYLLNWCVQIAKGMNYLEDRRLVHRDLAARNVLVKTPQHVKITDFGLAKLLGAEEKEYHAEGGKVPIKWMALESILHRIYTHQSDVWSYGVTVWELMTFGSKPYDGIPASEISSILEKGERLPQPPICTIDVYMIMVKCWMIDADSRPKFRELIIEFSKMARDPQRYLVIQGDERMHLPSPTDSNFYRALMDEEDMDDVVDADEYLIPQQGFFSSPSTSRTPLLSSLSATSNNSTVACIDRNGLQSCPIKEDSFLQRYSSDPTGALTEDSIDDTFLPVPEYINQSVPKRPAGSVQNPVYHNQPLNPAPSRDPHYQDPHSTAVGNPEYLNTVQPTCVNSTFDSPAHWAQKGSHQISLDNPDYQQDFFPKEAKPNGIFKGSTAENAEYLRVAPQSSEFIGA
# T1 sequence (P04626 23-1255): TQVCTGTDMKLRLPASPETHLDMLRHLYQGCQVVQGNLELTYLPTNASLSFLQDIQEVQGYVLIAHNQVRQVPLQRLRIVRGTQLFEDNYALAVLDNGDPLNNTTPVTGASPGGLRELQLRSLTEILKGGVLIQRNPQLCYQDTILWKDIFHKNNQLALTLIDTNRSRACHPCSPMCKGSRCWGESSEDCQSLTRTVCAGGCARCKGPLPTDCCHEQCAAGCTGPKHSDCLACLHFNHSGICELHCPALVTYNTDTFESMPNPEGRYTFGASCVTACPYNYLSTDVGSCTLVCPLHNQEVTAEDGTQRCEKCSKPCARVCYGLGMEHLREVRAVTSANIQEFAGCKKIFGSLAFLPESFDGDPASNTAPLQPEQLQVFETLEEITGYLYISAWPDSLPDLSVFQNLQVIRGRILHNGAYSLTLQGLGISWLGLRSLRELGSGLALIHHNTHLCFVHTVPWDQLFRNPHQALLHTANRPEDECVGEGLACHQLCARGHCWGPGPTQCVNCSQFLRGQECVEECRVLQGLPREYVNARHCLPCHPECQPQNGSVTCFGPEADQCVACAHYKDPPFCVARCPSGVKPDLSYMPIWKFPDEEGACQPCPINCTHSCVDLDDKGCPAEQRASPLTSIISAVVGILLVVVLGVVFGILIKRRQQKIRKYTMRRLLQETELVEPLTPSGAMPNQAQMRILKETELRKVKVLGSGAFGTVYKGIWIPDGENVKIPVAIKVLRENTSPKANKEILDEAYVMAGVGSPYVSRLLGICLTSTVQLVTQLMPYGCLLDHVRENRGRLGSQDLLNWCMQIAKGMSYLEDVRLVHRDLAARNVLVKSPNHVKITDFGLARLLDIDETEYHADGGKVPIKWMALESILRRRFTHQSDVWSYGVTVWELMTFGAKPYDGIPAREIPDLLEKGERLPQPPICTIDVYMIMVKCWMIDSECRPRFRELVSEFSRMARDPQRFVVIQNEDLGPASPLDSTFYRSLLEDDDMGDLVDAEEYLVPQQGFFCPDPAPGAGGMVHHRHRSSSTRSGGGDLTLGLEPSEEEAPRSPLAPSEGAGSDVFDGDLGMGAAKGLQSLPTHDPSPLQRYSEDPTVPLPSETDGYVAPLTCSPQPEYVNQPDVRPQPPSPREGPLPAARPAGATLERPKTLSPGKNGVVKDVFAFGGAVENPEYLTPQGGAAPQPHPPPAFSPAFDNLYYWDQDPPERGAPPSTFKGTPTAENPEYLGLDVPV
IC50 (HER2 WT [1]),IC50 (HER2 S310F [2]),IC50 (EGFR V3 [3]),IC50 (EGFR WT [4]),IC50 (HER2 S310F [5]),IC50 (EGFR WT [6]),IC50 (HER2 WT [7]; [11]),IC50 (EGFR V3 [8]),IC50 (HER2 WT [7]; [12]),IC50 (HER2 YVMA [9]),IC50 (HER2 YVMA [10]),Structure (SMILES)
100 to 200 nM,100 to 200 nM,100 to 200 nM,> 1000 nM,100 to 200 nM,> 1000 nM,100 to 200 nM,100 to 200 nM,–,–,–,C=CC(=O)Nc1cc2c(Nc3ccc(OCc4cccc(C(F)(F)F)n4)c(Cl)c3)ncnc2cc1OCCN1CCOCC1 [compound 23]
50 to 100 nM,50 to 100 nM,100 to 200 nM,> 1000 nM,50 to 100 nM,> 1000 nM,50 to 100 nM,100 to 200 nM,–,–,–,C=CC(=O)Nc1cc2c(Nc3ccc(Oc4cccc(Cl)c4)cc3)ncnc2cc1OCCN1CCOCC1 [compound 37]
50 to 100 nM,100 to 200 nM,100 to 200 nM,> 1000 nM,100 to 200 nM,> 1000 nM,50 to 100 nM,100 to 200 nM,–,–,–,C=CC(=O)Nc1cc2c(Nc3ccc(OCc4ccccn4)c(Cl)c3)ncnc2cc1N1CCN2CCC1C2 (stereo not shown) [compound 43]
50 to 100 nM,300 to 500 nM,100 to 200 nM,300 to 500 nM,300 to 500 nM,300 to 500 nM,50 to 100 nM,100 to 200 nM,–,–,–,C=CC(=O)Nc1cc2c(Nc3ccc(OCc4ccccn4)c(Cl)c3)ncnc2cc1N1CC(N2CCOCC2)C1 [compound 44]
20 to 30 nM,100 to 200 nM,50 to 100 nM,300 to 500 nM,100 to 200 nM,300 to 500 nM,20 to 30 nM,50 to 100 nM,≤ 50 nM,–,–,C=CC(=O)Nc1cc2c(Nc3ccc(OCc4ccccn4)c(Cl)c3)ncnc2cc1N1CCC2(CCN(C)C2)C1 (stereo not shown) [compound 46]
100 to 200 nM,300 to 500 nM,200 to 300 nM,> 1000 nM,300 to 500 nM,> 1000 nM,100 to 200 nM,200 to 300 nM,–,–,–,C=CC(=O)Nc1cc2c(Nc3ccc(OCc4ccccn4)c(Cl)c3)ncnc2cc1N(C)C1CCN(C)C1 (stereo not shown) [compound 48]
50 to 100 nM,100 to 200 nM,100 to 200 nM,> 1000 nM,100 to 200 nM,> 1000 nM,50 to 100 nM,100 to 200 nM,–,–,–,C=CC(=O)Nc1cc2c(Nc3ccc(OCc4ccccn4)c(Cl)c3)ncnc2cc1N1CC2CCN(C)C2C1 (stereo not shown) [compound 49]
100 to 200 nM,300 to 500 nM,200 to 300 nM,> 1000 nM,300 to 500 nM,> 1000 nM,100 to 200 nM,200 to 300 nM,–,–,–,C=CC(=O)Nc1cc2c(Nc3ccc(OCc4ccccn4)cn3)ncnc2cc1OCCN1CCOCC1 [compound 58]
30 to 50 nM,100 to 200 nM,30 to 50 nM,300 to 500 nM,100 to 200 nM,300 to 500 nM,30 to 50 nM,30 to 50 nM,≤ 50 nM,–,–,C=CC(=O)Nc1cc2c(Nc3ccc(OCc4ccccn4)cc3F)ncnc2cc1OC1CCN(C)C1 (stereo not shown) [compound 59]
–,100 to 200 nM,100 to 200 nM,200 to 300 nM,100 to 200 nM,200 to 300 nM,–,100 to 200 nM,≤ 50 nM,> 1000 nM,> 1000 nM,C=CC(=O)Nc1cc2c(Nc3ccc(OCc4ccccn4)cc3)ncnc2cc1OCCN1CC2CN(C)CC2C1 (stereo not shown) [compound 81]

# Further lines, the compound ahead of its results:
Structure (SMILES),IC50 (HER2 WT [1]),IC50 (HER2 S310F [2]),IC50 (EGFR V3 [3]),IC50 (EGFR WT [4]),IC50 (HER2 S310F [5]),IC50 (EGFR WT [6]),IC50 (HER2 WT [7]; [11]),IC50 (EGFR V3 [8]),IC50 (HER2 WT [7]; [12]),IC50 (HER2 YVMA [9]),IC50 (HER2 YVMA [10])
C=CC(=O)Nc1cc2c(Nc3ccc(OCc4cccc(F)c4)c(Cl)c3)ncnc2cc1N(C)CCN(C)C [compound 1],50 to 100 nM,500 to 1000 nM,100 to 200 nM,> 1000 nM,500 to 1000 nM,> 1000 nM,50 to 100 nM,100 to 200 nM,–,–,–
C=CC(=O)Nc1cc2c(Nc3ccc(OCc4cccc(F)c4)c(Cl)c3)ncnc2cc1N(C)CCN1CCOCC1 [compound 2],100 to 200 nM,300 to 500 nM,50 to 100 nM,> 1000 nM,300 to 500 nM,> 1000 nM,100 to 200 nM,50 to 100 nM,–,–,–
C=CC(=O)Nc1cc2c(Nc3ccc(OCc4cccc(F)c4)c(Cl)c3)ncnc2cc1OCCCN1CCOCC1 [compound 3],10 to 20 nM,20 to 30 nM,30 to 50 nM,300 to 500 nM,20 to 30 nM,300 to 500 nM,10 to 20 nM,30 to 50 nM,≤ 20 nM,–,–
CC#CC(=O)Nc1cc2c(Nc3ccc(OCc4ccccn4)c(Cl)c3)ncnc2cc1N(C)CCN1CCOCC1 [compound 4],20 to 30 nM,50 to 100 nM,50 to 100 nM,200 to 300 nM,50 to 100 nM,200 to 300 nM,20 to 30 nM,50 to 100 nM,≤ 50 nM,–,–
C=CC(=O)Nc1cc2c(Nc3ccc(OCc4ccccn4)c(Cl)c3)ncnc2cc1N(C)CCN1CCOCC1 [compound 7],100 to 200 nM,200 to 300 nM,100 to 200 nM,> 1000 nM,200 to 300 nM,> 1000 nM,100 to 200 nM,100 to 200 nM,–,–,–
C=CC(=O)Nc1cc2c(Nc3ccc(OCc4ccccn4)cc3)ncnc2cc1OCCn1ccnc1 [compound 9],10 to 20 nM,100 to 200 nM,50 to 100 nM,500 to 1000 nM,100 to 200 nM,500 to 1000 nM,10 to 20 nM,50 to 100 nM,≤ 20 nM,–,–
C=CC(=O)Nc1cc2c(Nc3ccc(OCc4ccccn4)c(Cl)c3)ncnc2cc1N(C)CCCN1CCOCC1 [compound 12],50 to 100 nM,100 to 200 nM,100 to 200 nM,500 to 1000 nM,100 to 200 nM,500 to 1000 nM,50 to 100 nM,100 to 200 nM,–,–,–
C=CC(=O)Nc1cc2c(Nc3ccc(OCc4ccccn4)c(Cl)c3)ncnc2cc1OCC1CCCN1C (stereo not shown) [compound 14],10 to 20 nM,50 to 100 nM,30 to 50 nM,300 to 500 nM,50 to 100 nM,300 to 500 nM,10 to 20 nM,30 to 50 nM,≤ 20 nM,–,–
C=CC(=O)Nc1cc2c(Nc3ccc(OCc4ccccn4)c(Cl)c3)ncnc2cc1OC1CCNC1 (stereo not shown) [compound 15],10 to 20 nM,100 to 200 nM,200 to 300 nM,300 to 500 nM,100 to 200 nM,300 to 500 nM,10 to 20 nM,200 to 300 nM,≤ 20 nM,–,–
